Broadly, the mortality is the percentage killed. The low end stands for more survivors, the high end for fewer survivors.

The source of these data is patent US11578083B2, “Pyrimidinium compounds and their mixtures for combating animal pests” (BASF SE, priority 2017, dated 2023).

What all share (type): in vivo
Experiment [1] has as its system Cowpea aphid (Aphis craccivora). As to the kind of experiment: B.3 Cowpea aphid leaf disk test. To be noted: foliar, 120 h. How it is done:
If not otherwise specified, the test solutions are prepared as follows:
The active compound is dissolved at the desired concentration in a mixture of 1:1 (vol:vol) distilled water: acetone. The test solution is prepared at the day of use.
B.3 Cowpea aphid (Aphis craccivora):
For evaluating control of Cowpea aphid through contact or systemic means the test unit consists of 24-well-microtiter plates containing broad bean leaf disks.
The compounds are formulated using a solution containing 75% v/v water and 25% v/v DMSO. Different concentrations of formulated compounds are sprayed onto the leaf disks at 2.5 μl, using a custom built micro atomizer, at two replications.
After application, the leaf disks are air-dried and 5-8 adult aphids placed on the leaf disks inside the microtiter plate wells. The aphids are then allowed to suck on the treated leaf disks and incubated at about 23±1° C. and about 50±5% relative humidity for 5 days. Aphid mortality and fecundity is then visually assessed.

The test system of experiment [2] is Rice green leafhopper (Nephotettix virescens). In words: B.1 Rice green leafhopper, sprayed rice seedlings. To be noted: 72 h. How it is done: B.1 Rice Green Leafhopper (Nephotettix virescens):
Rice seedlings are cleaned and washed 24 hours before spraying. The active compounds are formulated in 50:50 acetone:water (vol:vol), and 0.1% vol/vol surfactant (EL 620) is added. Potted rice seedlings are sprayed with 5 ml test solution, air dried, placed in cages and inoculated with 10 adults. Treated rice plants are kept at about 28-29° C. and relative humidity of about 50-60%. Percent mortality is recorded after 72 hours.

For experiment [3], the system named is Rice brown plant hopper (Nilaparvata lugens). As to the kind of experiment: B.2 Rice brown plant hopper, sprayed rice seedlings. Particulars: 72 h. How it is done: B.2 Rice Brown Plant Hopper (Nilaparvata lugens):
Rice seedlings are cleaned and washed 24 hours before spraying. The active compounds are formulated in 50:50 acetone:water (vol:vol) and 0.1% vol/vol surfactant (EL 620) is added. Potted rice seedlings are sprayed with 5 ml test solution, air dried, placed in cages and inoculated with 10 adults. Treated rice plants are kept at about 28-29° C. and relative humidity of about 50-60%. Percent mortality is recorded after 72 hours.

Experiment [4] relates to Chilo suppressalis. In words: B.3b Rice striped stem borer, foliar spraying. As for the experimental part:
All three pots (=replicates) of four to five-week old potted rice per treatment were simultaneously sprayed with 12 mL test solution. After spray application, plants were air dried in the laboratory before inoculation. After air-drying, 5 to 6-day old egg masses of CHILSU were used for inoculation. All stem borer-infested potted rice plants were transferred inside the screenhouse 1 day after inoculation until the final assessment. […] Whole plant damage was assessed before cutting each hill at the basal portion for tiller dissection. Each dissected tiller was inspected looking for dead (if possible) and alive stemborer larvae.

Experiment [5] deals with Chilo suppressalis. As to the kind of experiment: B.3c Rice striped stem borer, drench application. Particulars: Chilo suppressalis neonates, Dose 10 mg, 14 DAT. From the text:
The test solution was poured onto the soil of each potted rice plant (=replicate) with five tillers each pot. After drench application, treated plants were transferred inside the screenhouse for three days prior to stemborer inoculation inside the laboratory. Three days after drench application, 5 to 6-day old egg masses of CHILSU were used for inoculation. All stemborer-infested potted rice plants were transferred inside the screenhouse 1 day after inoculation until the final assessment. […] Whole plant damage was assessed before cutting each hill at the basal portion for tiller dissection. Each dissected tiller was inspected looking for dead (if possible) and alive stemborer larvae.

Experiment [6] relates to green peach aphid (Myzus persicae). In words: Test 2 green peach aphid, artificial diet (mixtures). From the text: For evaluating control of green peach aphid (Myzus persicae) through systemic means the test unit consisted of 96-well-microtiter plates containing liquid artificial diet under an artificial membrane.
The compounds or mixtures were formulated using a solution containing 75% water and 25% DMSO. Concentrations of formulated compounds or mixtures were pipetted into the aphid diet, using a custom built pipetter, at two replications.
(§1) For experimental mixtures in these tests identical volumes of both mixing partners at the desired concentrations respectively, were mixed together.
After application, 5-8 adult aphids were placed on the artificial membrane inside the microtiter plate wells. The aphids were then allowed to suck on the treated aphid diet and incubated at 23±1° C., 50±5% RH for 3 days. Aphid mortality and fecundity was then visually assessed.

The test system of experiment [7] is tobacco budworm (Heliothis virescens). In words: Test 4 tobacco budworm, insect diet with eggs (mixtures). How it is done: (§2) For evaluating control of tobacco budworm (Heliothis virescens) the test unit consisted of 96-well-microtiter plates containing an insect diet and 15-25 H. virescens eggs.
The compounds or mixtures were formulated using a solution containing 75% water and 25% DMSO. Concentrations of formulated compounds or mixtures were sprayed onto the insect diet at 10 μl, using a custom built micro atomizer, at two replications.
as §1
(§3) After application, microtiter plates were incubated at 28±1° C., 80±5% RH for 5 days. Egg and larval mortality was then visually assessed.

Experiment [8] relates to Greenhouse Whitefly (Trialeurodes vaporariorum). In words: Greenhouse Whitefly, egg plant leaf disk (table 5, mixtures). Particulars: solo application I-R-1, use rate 2 ppm. As for the experimental part:
For evaluating control of Greenhouse Whitefly (Trialeurodes vaporariorum) the test unit consisted of 96-well-microtiter plates containing a leaf disk of egg plant leaf disk with white fly eggs. The compounds or mixtures were formulated using a solution containing 75% water and 25% DMSO. Concentrations of formulated compounds or mixtures were sprayed onto the […] at 2.5 μl, using a custom built micro atomizer, at two replications.
as §1
After application, microtiter plates were incubated at 23±1° C., 65±5% RH for 6 days. Mortality of hatched crawlers was then visually assessed.

Experiment [9] relates to tobacco budworm (Heliothis virescens). In words: Test 10 tobacco budworm, insect diet with eggs (mixtures). As for the experimental part: as §2
The compounds or mixtures were formulated using a solution containing 75% water and 25% DMSO. Different concentrations of formulated compounds or mixtures were sprayed onto the insect diet at 10 μl, using a custom built micro atomizer, at two replications.
as §1, §3

For experiment [10], the system named is yellow fever mosquito (Aedes aegypti). Particulars: Table 12; Yellow Fever Mosquito; solo application I-R-1, use rate 10 ppm. How it is done: For evaluating control of yellow fever mosquito (Aedes aegypti) the test unit consisted of 96-well-microtiter plates containing 200 μl of tap water per well and 5-15 freshly hatched A. aegypti larvae.
The compounds or mixtures were formulated using a solution containing 75% water and 25% DMSO. Different concentrations of formulated compounds or mixtures were sprayed onto the insect diet at 2.5 μl, using a custom built micro atomizer, at two replications.
as §1
After application, microtiter plates were incubated at 28±1° C., 80±5% RH for 2 days. Larval mortality was then visually assessed.

For the molecule `C[n+]1c([O-])c(-c2ccccc2)c(=O)n2c1SC[C@@H]2c1cnc(Cl)s1` [I-R-1, (3R)-3-(2-chlorothiazol-5-yl)-8-methyl-7-oxo-6-phenyl-2,3-dihydrothiazolo[3,2-a]pyrimidin-4-ium-5-olate], the figures for the mortality at 1 ppm in experiment [1], in [2] and in experiment [3] were 90%, 100% and 90%, respectively. The “Feeding damage (%)” value turned out to be 7% in experiment [4] (Chilo suppressalis neonates, foliar spraying, Dose 200 ppm, 14 DAT) and 7% in experiment [5]. The mortality at 200 ppm in experiment [4] (Chilo suppressalis, foliar, 336 h) is 99%. The Average control % in experiment [6] (Table 2.1, solo application I-R-1, use rate 2 ppm) is recorded as 25%; in [6] (Table 2.2, solo application I-R-1, use rate 2 ppm), 0%; in experiment [6] (Table 2.3, solo application I-R-1, use rate 0.4 ppm), 50%; in [6] (Table 2.4, solo application I-R-1, use rate 50 ppm) it was 0%; in experiment [6] (Table 2.5, solo application I-R-1, use rate 2 ppm), 50%; in experiment [6] (Table 2.6, solo application I-R-1, use rate 2 ppm), 25%. The Average control % came to 0% in [7] (Table 4.1, solo application I-R-1, use rate 10 ppm); 0% in experiment [7] (Table 4.2, solo application I-R-1, use rate 0.4 ppm); 0% in experiment [8]; 0% in experiment [9] (Table 10.1, solo application I-R-1, use rate 10 ppm); 25% in experiment [9] (Table 10.2, solo application I-R-1, use rate 10 ppm); 0% in experiment [10].
